Laboratory results as given in patent US8163788B2, “Low-molecular inhibitors of cytohesin-family guanine nucleotide exchange factors” (Rheinische Friedrich-Wilhelms Universitat Bonn, priority 2004, dated 2012).

Columns and labels:
sec7-domain of Gea2 = molecular target: T1, sec7-domain of Gea2 (Saccharomyces cerevisiae, UniProt P39993); assay: GDP/GTP exchange on NΔ17-ARF1 catalysed by sec7-domain (tryptophan fluorescence); format: biochemical
T1 construct: 1 μM of the purified sec7-domain of cytohesin-1, cytohesin-2 and Gea2; made in house; host or cells: E. coli BL21DE3
Protocol: (§1) The IC50 value for the inhibition of the exchange activity of the sec7-domains of various guanine nucleotide exchange factors of the compounds (9), (10), (11), (12), (14) and (19) was determined.
(§2) For this purpose, the sec7-domains of cytohesin-1, cytohesin-2 and Gea2 as well as the NΔ 17-ARF 1, a mutant of the ARF protein, recombinantly expressed in E. coli BL21DE3, were purified by means of a standard method and used as catalysts for the exchange from GDP to GTP in GTPases of the family of the ADP ribosylation factors. The exchange from GDP to GTP induces a conformation change of the ribosylation factor, as a result of which the fluorescence of a tryptophan radical of the protein is increased.
(§3) In 50 mM of HEPES, pH 7.4, 120 mM of KCl, 1 mM of MgCl2, 45 μM of GTP S, the compounds (9), (10), (11), (12), (14) and (19), each in concentrations of 1 μM to 30 μM, were added to 1 μM NΔ 17-ARF1 and, in each case, 1 μM of the purified sec7-domain of cytohesin-1, cytohesin-2 and Gea2, and the fluorescence was measured in a Varioskan, Thermo LifeSciences Inc., at the following wavelengths: excitation: 275 nm, emission 340 nm.
(§4) The IC50 value can be determined by plotting the initial rise of the fluorescence signal against the added concentrations of the compounds. The IC50 value corresponds to the concentration of the compounds at which the activity of the protein is reduced to half. […] Brefeldin A, a specific inhibitor of the […] Gea2 served as the control.

[1] = molecular target: T2, sec7-domain of cytohesin-2 (Homo sapiens, UniProt Q99418); assay: as above; format: biochemical; details: 1 μM NΔ17-ARF1, 1 μM sec7-domain, compounds 1 μM to 30 μM
T2 construct: 1 μM of the purified sec7-domain of cytohesin-1, cytohesin-2 and Gea2; made in house; host or cells: E. coli BL21DE3
T2 sequence (Q99418 72-201 limits assumed): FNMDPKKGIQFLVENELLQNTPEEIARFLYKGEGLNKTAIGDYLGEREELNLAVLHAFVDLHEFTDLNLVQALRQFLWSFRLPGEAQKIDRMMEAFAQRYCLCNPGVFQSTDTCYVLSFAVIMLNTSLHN
Protocol: as §1, §2, §3, §4

[2] = test system: sec7-domain of cytohesin-1; assay: as above; format: biochemical; details: conclusion in words from Table 1
Protocol: as §1, §2, §3, §4

[3] = molecular target: T3, sec7-domain of cytohesin-1 (Homo sapiens, UniProt Q15438); assay: as above; format: biochemical; details: 1 μM NΔ17-ARF1, 1 μM sec7-domain, compounds 1 μM to 30 μM
T3 construct: central sec7-domain, corresponding to the amino acids 62-244 in cytohesin-1; made in house; host or cells: E. coli BL21DE3
T3 sequence (Q15438 62-244): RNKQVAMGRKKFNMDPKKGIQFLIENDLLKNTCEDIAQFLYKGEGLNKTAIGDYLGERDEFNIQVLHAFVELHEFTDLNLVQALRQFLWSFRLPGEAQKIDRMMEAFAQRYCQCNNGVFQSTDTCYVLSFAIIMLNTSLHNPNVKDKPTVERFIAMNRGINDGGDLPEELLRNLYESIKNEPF
Protocol: as §1, §2, §3, §4

[4] = test system: Peripheral blood lymphocytes; assay: cytotoxicity by propidium iodide (PI) flow cytometry; format: cell-based; details: 50 nM to 50 μM
Protocol: The cytotoxicity of the compound according to Formula (9) was determined by means of propidium iodide (PI) employing flow cytometry. PI is a DNA stain that cannot penetrate into living cells. The experiments were carried out in an incubator at 37° C. [98.6° F.] and 5% CO2.
Peripheral blood lymphocytes were incubated with concentrations of 50 nM, 100 nM, 1 μM, 5 μM, 20 μM or 50 μM of the compound according to Formula (9) in “VLE-RPMI+/+” (Biochrom). The DMSO concentration per batch was 0.5%. A control batch contained 0.5% DMSO. After 2 hours, 24 hours and 72 hours, cells were removed and incubated with 2 μg/ml of PI for 5 minutes. The cells were centrifuged at 200×g for 8 minutes, washed with PBS, centrifuged again and analyzed in a flow cytometer (Beckmann Coulter, Krefeld).

T1 sequence (P39993 570-714): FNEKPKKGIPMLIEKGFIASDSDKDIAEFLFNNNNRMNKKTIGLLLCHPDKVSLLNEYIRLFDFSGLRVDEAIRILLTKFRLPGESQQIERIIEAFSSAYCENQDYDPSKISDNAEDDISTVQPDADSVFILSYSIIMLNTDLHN

For `COc1nc(-c2ccc3c(c2)OCO3)n(-c2ccc(NC(=O)CSc3ccccc3)cc2)n1` [Compound 9], the IC50 (sec7-domain of Gea2) was 64 ± 4 µM, the IC50 [1] was 8.3 ± 0.2 µM and the “specificity of inhibition of sec7-domains (cytohesins vis-à-vis Gea2)” value [2] was “specific inhibition of the sec7-domains of the cytohesins”. For the same compound, the IC50 [3] was 7.6 ± 0.3 µM, the “percentage of PI-positive (dead) cells” value ([4]; 2 hours, 24 hours and 72 hours) was “did not rise in a concentration-dependent or time-dependent manner” and the cytotoxicity ([4]; conclusion from PI flow cytometry, up to 72 hours) was “no cytotoxicity or at least no clearly detectable cytotoxicity”.
